Columns and labels:
human Kv1.5 = human Kv1.5 (Homo sapiens, UniProt P22460); test: Conventional patch clamp assay of inhibitory activity against Kv1.5; assay type: cell-based; settings: conventional patch-clamp method; CHO-K1 cells stably expressing human Kv1.5
Procedure: III. Conventional Patch Clamp Assay of Inhibitory Activity Against Kv1.5
The principle and method for the conventional patch clamp method can be found in Grissmer et al. [Grissmer et al. Molecular Pharmacology 1994, 45:1227-1234].
(§1) Inhibitory activity of a compounds against Kv1.5 was assessed using a CHO-K1 recombinant cell line stably expressing human Kv1.5 (Charles River, Calif.). The cells were cultured in an F-12K culture medium containing 5% calf serum (Invitrogen, Carlsbad.ca) in an incubator at 37° C. and under air humidity with 6% CO2.
(§2) During the experiment, adherent cells were placed in a recording chamber under an inverted microscope. All the experiments were performed at room temperature. Each of the cells used itself as the control.
(§3) The test compounds were formulated to their final concentrations on the day of assay, and then dissolved in an extracellular fluid. The extracellular fluid (mM) was: NaCl, 137; KCl, 4; CaCl2, 1.8; MgCl2, 1; HEPES, 10; glucose 10; pH 7.4 (NaOH titration). All the solutions of the test compounds and the control compounds contained 0.3% of DMSO.
(§4) Each of the compounds was perfused by a gravity-driven perfusion system. At least two cells were tested for each of the concentrations of a compound. After the current was stable, the blocking effect of the compounds was calculated by comparing the change in the current before and after administration of the compounds.
1000 μM 4-AP was used as a positive control.
(§5) The cells were transferred to a perfusion chamber, and were perfused with the extracellular fluid. Intracellular fluid (mM): K-aspartate, 130; MgCl2, 5; EGTA 5; HEPES, 10; pH 7.2 (KOH titration). The intracellular fluid was stored in a small amount in a refrigerator at −80° C. in batches, and was thawed on the day of the experiment. The electrodes were drawn by PC-10 (Narishige, Japan). A whole-cell patch-clamp recording was performed, with the noise being filtered by one-fifth of the sampling frequency.
(§6) The cells were clamped at −80 mV and then depolarized to 20 mV with square waves lasting for 2 seconds to obtain a Kv1.5 current. This process was repeated every 20 seconds. The maximum current elicited by the square waves was detected. After the maximum current became stable, the test compounds were perfused. After the reaction was stable, the blocking strength was calculated.
Data was collected and analyzed using pCLAMP 10 (Molecular Devices, Union City, CA). A stable current meant a current which varies within a limited range over time. The value of the stable current was used to calculate the effect of a compound at this […].

human Kv1.3 = human Kv1.3 (Homo sapiens, UniProt P22001); test: Conventional patch clamp assay of inhibitory activity against Kv1.3; assay type: cell-based; settings: conventional patch-clamp method; CHO-K1 cells stably expressing human Kv1.3
From the text: II. Conventional Patch Clamp Assay of Inhibitory Activity Against Kv1.3
In order to compare the influence of different assay methods on the inhibitory activity of a compound, the conventional patch clamp method was used to assay the inhibitory activities of compounds 21, 37, 44, 61 against Kv1.3. The principle and method for the conventional patch clamp method can be found in Grissmer et al. [Grissmer et al. Molecular Pharmacology 1994, 45:1227-1234].
as §1, with “of the” for “of a”, “against Kv1.3” for “against Kv1.5”, “human Kv1.3” for “human Kv1.5”, “River, California).” for “River, Calif.).”
as §2, §3
as §4, with “compounds. 1000 μM 4-AP was used as a positive control.” for “compounds.”
as §5
as §6, with “to 0” for “to 20”, “a Kv1.3” for “a Kv1.5”
Data was collected and analyzed using pCLAMP 10 (Molecular Devices, Union City, CA). A stable current meant a current which varies within a limited range over time. […]

Chain of human Kv1.5 (P22460 whole entry): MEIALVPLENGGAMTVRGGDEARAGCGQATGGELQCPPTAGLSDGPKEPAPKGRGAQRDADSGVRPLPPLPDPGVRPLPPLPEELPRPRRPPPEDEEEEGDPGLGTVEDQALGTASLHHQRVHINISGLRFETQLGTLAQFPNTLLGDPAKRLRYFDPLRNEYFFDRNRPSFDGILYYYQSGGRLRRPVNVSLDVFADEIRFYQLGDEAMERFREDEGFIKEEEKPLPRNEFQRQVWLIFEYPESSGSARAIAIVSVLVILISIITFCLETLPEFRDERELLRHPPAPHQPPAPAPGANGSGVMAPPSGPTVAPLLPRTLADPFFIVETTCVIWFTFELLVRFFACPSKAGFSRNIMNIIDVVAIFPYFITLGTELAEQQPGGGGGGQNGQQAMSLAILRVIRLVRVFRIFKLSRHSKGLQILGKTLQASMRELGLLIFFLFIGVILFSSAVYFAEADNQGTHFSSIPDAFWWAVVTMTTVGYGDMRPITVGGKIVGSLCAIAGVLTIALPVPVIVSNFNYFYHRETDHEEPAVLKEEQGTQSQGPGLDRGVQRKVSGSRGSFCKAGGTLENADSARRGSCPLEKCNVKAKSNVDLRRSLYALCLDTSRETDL
Chain of human Kv1.3 (P22001 whole entry): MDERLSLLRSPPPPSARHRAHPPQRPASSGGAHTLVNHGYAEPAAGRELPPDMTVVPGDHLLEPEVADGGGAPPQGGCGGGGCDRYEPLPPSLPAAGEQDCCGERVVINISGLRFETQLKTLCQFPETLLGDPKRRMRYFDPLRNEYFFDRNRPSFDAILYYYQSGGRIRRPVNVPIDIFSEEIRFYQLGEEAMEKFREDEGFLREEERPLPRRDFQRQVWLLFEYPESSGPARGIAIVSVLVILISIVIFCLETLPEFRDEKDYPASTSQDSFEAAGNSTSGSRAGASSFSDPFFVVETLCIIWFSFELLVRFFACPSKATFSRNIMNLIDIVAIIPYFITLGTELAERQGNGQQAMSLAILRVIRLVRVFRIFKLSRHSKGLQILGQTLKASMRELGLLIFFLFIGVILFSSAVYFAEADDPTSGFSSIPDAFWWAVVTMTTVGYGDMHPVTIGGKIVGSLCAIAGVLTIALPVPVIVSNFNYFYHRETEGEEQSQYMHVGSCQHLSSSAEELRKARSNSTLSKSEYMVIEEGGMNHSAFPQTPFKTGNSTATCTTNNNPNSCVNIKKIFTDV

IC50 (human Kv1.5): 3.65 µM
IC50 (human Kv1.3): 0.108 µM
SMILES: CC(C)CS(=O)(=O)N(Cc1ccc(F)cc1)c1ccc(N2CCN(C(=O)N(C)C)CC2)c(C#N)c1 [Compound 37, 4-(2-cyano-4-((N-(4-fluorobenzyl)-2-methylpropyl)sulfonamido)phenyl)-N,N-dimethylpiperazin-1-formamide]

— US11993576B2, “N-benzyl-N-arylsulfonamide derivative and preparation and use thereof” (Hangzhou Yirui Pharmaceutical Technology Co., Ltd, priority 2019, dated 2024)
